Here are results for three molecules from patent publication US11478470B2, “Combination product of Bcl-2 inhibitor or Bcl-2/Bcl-xL dual inhibitor and BTK inhibitor and use thereof in the prevention and/or treatment of diseases” (ASCENTAGE PHARMA (SUZHOU) CO., LTD., priority 2018, dated 2022).

The structures appear in SMILES notation. Where only a bound is given, the exact number is not on record here.

The test system of one test is DOHH2^R-ibrutinib cells. Briefly: CellTiter-Glo cell viability assay, ibrutinib-resistant DOHH2R-ibrutinib cells. Format: cell-based, human. To be noted: for IC50: Homo sapiens, ibrutinib-resistant cells, CellTiter-Glo, 24 or 72 hours, read-out: IC50 value to the DOHH2^R-ibrutinib cell line (cell viability). Here is the method:
(§1) DOHH2 cells were cultured in RPM11640 medium containing 10% calf serum, 1% antibiotics and 5 ug/ml verapamil (calcium ion channel blocker), and ibrutinib was added at a gradually increasing concentration from 0.5 uM to 10 uM. After exposure for about three months, a ibrutinib-resistant DOHH2R cell line was obtained, also referred to as DOHH2^R-ibrutinib. After DOHH2^R-ibrutinib was stabilized, it was continued to be cultured in culture medium containing 10 uM Ibrutinib to maintain its resistance. Ibrutinib is absent only in the susceptibility test with Compound 6 or 88.
(§2) Relative light units (RLU) were determined by a microplate reader (BioTek, Synergy H1 MF, USA). […] IC50 values were calculated using GraphPad Prism. IC50 was expressed as mean±standard deviation (SD).
In general terms: ATP-based viability assays read luminescence as a measure of living cells.

A further test has as its system DOHH2 cells. Briefly: CellTiter-Glo cell viability assay, DOHH2 cells (Example 11). Format: cell-based. The settings on record: Homo sapiens, DOHH-2, DOHH2 parental cells. Here is the method:
as §1, §2

The subject of test [1] is human DOHH2 (FL) xenograft tumor. The class given is in vivo. To be noted: Cpd. 6 100 mg/kg, Ibrutinib 25 mg/kg. Here is the method:
(§3) All animal experiments were strictly in accordance with the laboratory animal use and management practices of GenePharma Co., Ltd. and Ascentage Pharma Group Co., Ltd. The calculation of relevant parameters referred to the Chinese CFDA “Guidelines for Non-Clinical Research Techniques of Cytotoxic Antitumor Drugs”.
(§4) Animal body weight and tumor size were measured twice a week during the experiment. Tumor growth was observed periodically, and the animals were randomly divided into groups according to tumor size and mouse body weight when the tumors grew to an average volume of 100-200 mm^3. The conditions and death of the animals were observed every day. Routine monitoring included the effects of tumor growth and treatment on normal animal behaviors, including activity, feeding and drinking situations, weight gain or loss, eyes, coat and other abnormalities in the experimental animals. The deaths and clinical symptoms observed during the experiment were recorded in the raw data. The entire operations of administration, measurement of mouse body weight and tumor volume were performed in a clean bench. Plasma and tumor tissues were collected, weighed and photographed after the end of the last administration according to the experimental protocol. Plasma and tumor samples were frozen and stored at −80° C.
(§5) Tumor volume (TV) was calculated as: TV=a×b^2/2, in which a and b represented the length and width of the tumor as measured, respectively. The relative tumor volume (RTV) was calculated as: RTV=Vt/V1, in which V1 was the tumor volume at the time of grouping and administration, and Vt was the tumor volume measured on a day after administration. […] Change of body weight %=(measured body weight−body weight at the time of grouping)/body weight at the time of grouping×100%.
(§6) If the synergy factor was >1, there was a synergistic effect; if the synergistic factor=1, there was an additive effect; if the synergistic factor <1, there was an antagonistic effect.

A further test has as its system DOHH-2 cells. Briefly: Flow cytometry analysis of apoptosis (Annexin V/PI), DOHH-2. The class given is cell-based, human. To be noted: DOHH-2, 24 hours; 10 nM Compound 6, 100 nM ibrutinib, or the combination. Here is the method:
(§7) Apoptosis was evaluated with AnnexinV/propidium iodide (PI) dyes (BD Biosciences, Cat. 556547) according to manufacturer's instructions. Briefly, cells were seeded in 24-well plates at a density 2×10^5 cells/well, and treated with Compound 6 and/or ibrutinib (Selleck) to induce apoptosis. After 24 h, cells were collected, washed twice with PBS (pH 7.4), and stained with Annexin-V and propidium iodide (PI) for 15 mins. Stained samples were analyzed using flow cytometer Attune NxT (Life technologies).
(§8) In the experiment, the combination treatment with Compound 6 and ibrutinib was evaluated for its ability of apoptosis induction on DOHH2 and OCI-LY1 cells by co-staining of Annexin-V/Propidium iodide (PI) followed by flow cytometry analysis (FIG. 7A). […] Flow cytometry analysis of apoptotic cells by Annexin V and propidium iodide (PI) co-staining in DOHH-2 and OCI-LY1 cell lines treated with 10 nM (DOHH-2) or 15 nM (OCI-LY1) Compound 6, 100 nM (DOHH-2) or 150 nM (OCI-LY1) ibrutinib, or the combination for 24 hours. Three independent experiments were conducted and the representative results are shown (7A). The percentages of Annexin V-positive, PI-positive, or double positive DOHH-2 (7B) and OCI-LY1 (7C) cells are plotted as bar charts and shown as mean±SEM (n=3) (**p<0.01, ***p<0.001).
For orientation: A flow cytometer gives signals particle by particle.

The subject of the next test is OCI-LY1 cells. Put plainly: Flow cytometry analysis of apoptosis (Annexin V/PI), OCI-LY1. Format: cell-based, human. To be noted: OCI-LY1, 24 hours; 15 nM Compound 6, 150 nM ibrutinib, or the combination. Here is the method:
as §7, §8

Test [2] has as its system human OCI-LY1 (DLBCL) xenograft tumor. Format: in vivo. To be noted: Cpd. 6 50 mg/kg, Ibrutinib 20 mg/kg, day 36. Here is the method: (§9) . All animal experiments were strictly in accordance with the laboratory animal use and management practices of GenePharma Co., Ltd. and Ascentage Pharma Group Co., Ltd. The calculation of relevant parameters referred to the Chinese CFDA “Guidelines for Non-Clinical Research Techniques of Cytotoxic Antitumor Drugs”.
as §4
(§10) Tumor volume (TV) was calculated as: TV=a×b^2/2, in which a and b represented the length and width of the tumor as measured, respectively. The relative tumor volume (RTV) was calculated as: RTV=Vt/V1, in which V1 was the tumor volume at the time of grouping and administration, and Vt was the tumor volume measured on a day after administration. The evaluation index of anti-tumor activity was the relative tumor proliferation rate T/C (%), which was calculated as: relative tumor proliferation rate T/C (%)=(TRTV/CRTV)×100%, in which TRTV was the RTV of the treatment group, CRTV was the RTV of the vehicle control group; tumor remission rate (%) was calculated as: (the number of SD (stable disease), PR (tumor partial regression) and CR (tumor complete regression) in the tumor-bearing mice after treatment)/the total number of mice in the group×100%. Change of body weight %=(measured body weight−body weight at the time of grouping)/body weight at the time of grouping×100%.
(§11) ; The synergistic analysis was performed by the following formula: synergy factor=((A/C)×(B/C))/(AB/C); A=RTV value of the group administered with A only; B=RTV value of the group administered with B only; C=RTV value of the vehicle control group; AB=RTV value of the group administered with A and B in combination (Clarke R. Issues in experimental design and endpoint analysis in the study of experimental cytotoxic agents in vivo in breast cancer and other models [J]. Breast Cancer Research & Treatment, 1997, 46(2-3): 255-278). If the synergy factor was >1, there was a synergistic effect; if the synergistic factor=1, there was an additive effect; if the synergistic factor <1, there was an antagonistic effect.

Test [3] has as its system human DOHH2 (FL) xenograft tumor. The class given is in vivo. To be noted: Cpd. 6 50 mg/kg, Ibrutinib 20 mg/kg. Here is the method: as §9, §4, §10, §11
The test system of test [4] is human OCI-LY1 (DLBCL) xenograft tumor. Format: in vivo. Here is the method:
as §3, §4, §5, §6
In short, when the average tumor volume reached approximately 90 mm^3, grouping and administration started. Ibrutinib was administered at a dose of 15 mg/kg, i.v., qd, from the day of grouping, for 3 weeks. […] On the 13th day after grouping, the administration was stopped and the observation period started.

The mark [5] stands for this setting: Cpd. 6 100 mg/kg p.o. qd, Ibrutinib 15 mg/kg i.v. qd, day 43.
[6] abbreviates: Cpd. 6 100 mg/kg, Ibrutinib 15 mg/kg, including CR, PR and SD.
The mark [7] stands for this setting: Cpd. 6 100 mg/kg, Ibrutinib 15 mg/kg, mice per group.

In general, IC50 refers to the concentration at which inhibition is half-maximal.

On to `CC1(C)CCC(CN2CCN(c3ccc(C(=O)NS(=O)(=O)c4ccc(NCC5CCOCC5)c([N+](=O)[O-])c4)c(Oc4cnc5[nH]ccc5c4)c3)CC2)=C(c2ccc(Cl)cc2)C1` [ABT-199, reference compound], for which the IC50 in the test with DOHH2^R-ibrutinib cells worked out at 1190 nM; in the test with DOHH2 cells it was 51.1 nM.

For the molecule `Cc1c(S(C)(=O)=O)c(-c2cc(F)cc(N3CCN(c4ccc(NS(=O)(=O)c5ccc(N[C@H](CCN6CCC(C(=O)O)CC6)CSc6ccccc6)c(S(=O)(=O)C(F)(F)F)c5)cc4)CC3)c2)c(-c2ccc(Cl)cc2)n1C(C)C` [Compound 88, (R)-1-(3-(4-(N-(4-(4-(3-(2-(4-chlorophenyl)-1-isopropyl-5-methyl-4-(methylsulfonyl)-1H-pyrrol-3-yl)-5-fluorophenyl)piperazin-1-yl)phenyl)-sulfamoyl)-2-(trifluoromethylsulfonyl)phenylamino)-4-(phenylthio)butyl)piperidine-4-carboxylic acid], in the test with DOHH2^R-ibrutinib cells (DOHH2^R-ibrutinib cells), the “time to cell death” value was at most 24 h. The IC50 with DOHH2^R-ibrutinib cells was determined as 17 nM.

Turning to `C=CC(=O)N1CCC[C@@H](n2nc(-c3ccc(Oc4ccccc4)cc3)c3c(N)ncnc32)C1` [Ibrutinib, reference compound], in the test on DOHH2^R-ibrutinib cells, the “increase of IC50 in DOHH2^R-ibrutinib versus DOHH2 cells” value came to 160 fold and the IC50 was 12200 nM. In test [1] (TGI = 100 − T/C%), the “TGI (%) on day 32 after administration” value stood at 52%. Besides, in test [1] (day 32), the “RTV on day 32 after administration (mean ± standard error)” value amounted to 6.1 ± 0.8 and the “T/C (%) on day 32 after administration” value is on record as 48%. For the same molecule, in the test with DOHH-2 cells, the “apoptosis induction (Annexin V / PI positive cells)” value is reported as “limited apoptosis activity”. For the same molecule, in the test with OCI-LY1 cells, the “apoptosis induction (Annexin V / PI positive cells)” value is on record as “limited apoptosis activity”. Besides, the “RTV on day 36 after administration (mean ± standard error)” value in test [2] is 20.5 ± 2.1. Also, in test [2] (given as fraction), the “T/C on day 36 after administration” value is listed as 0.810. For the same molecule, in test [3], the “RTV on day 35 after administration (mean ± standard error)” value is listed as 11.4 ± 1.5 and the “T/C (%) on day 35 after administration” value is given as 67.7%. Further, the IC50 in the test on DOHH2 cells stood at 73.5 nM. Further, in test [4] (setting [5]), the “RTV on the 43rd day after administration (mean ± standard error)” value is 15.9 ± 7.63 and the “T/C (%) on day 43 after administration” value is on record as 58%. Further, the “TGI (%) on day 43 after administration” value in test [4] (Cpd. 6 100 mg/kg, Ibrutinib 15 mg/kg, TGI = 100 − T/C%) is 42%. The “RTV on day 50 after administration (mean ± standard error)” value in test [4] (Cpd. 6 100 mg/kg, Ibrutinib 15 mg/kg, day 50) came out at 32.1 ± 1137. For the same molecule, in test [4] (setting [6]), the “remission rate % on day 43 after administration” value was “PR ( 0% )” and the “remission rate % on day 50 after administration” value is “( 0% )”. In test [4] (setting [7]), the “Tumor status on day 43 after administration: CR (tumor complete regression)” value is given as 0/5 CR, 0/5; the “Tumor status on day 43 after administration: PR (tumor partial regression)” value is 0/5 CR, 0/5; the “Tumor status on day 50 after administration: CR” value is 0/5 CR,; the “Tumor status on day 50 after administration: PR” value is 0/5 PR.
